Read-outs that look alike come from different tables or passages of the source.
Assays:
[1] = system: SMN2 mRNA; assay: RT-qPCR splicing assay, SMN2 canonical junction (CJ) mRNA; type: cell-based, human; conditions: Homo sapiens; Table 5 panel; canonical junction qPCR; compound concentration having 50% response in CJ decrease; read-out: SMN2 IC50 (decrease in CJ mRNA levels)
Method in brief: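 Cells are plated (A673 allowed 24 h to adhere), dosed with an 11-point 3-fold series topping at 10 uM final, and incubated 24 h at 37 °C. Lysis is followed by cDNA synthesis and qPCR of the CJ transcript, normalized to a housekeeping gene.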

[2] = system: MYB; assay: HiBiT protein abundance assay, MYB HiBiT K562 cell line; type: cell-based, human; conditions: HiBiT K562 cell line, 24 hours, top dose 10 μM; read-out: Effect on protein abundance, MYB (IC50 category)
Method in brief: (§1)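 K562 knock-in lines with endogenous HiBiT-tagged target, 10,000 cells/well in IMDM + FBS, treated 24 h at 37° C with 10-point 3-fold dilutions (top 10 μM final; DMSO ≤0.25%). Lytic Nano-Glo HiBiT luminescence normalized to untagged K562 baseline and DMSO controls; IC50 = concentration giving 50% abundance via four-parameter fit.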

[3] = system: HTT; assay: HiBiT protein abundance assay, HTT HiBiT K562 cell line; type: cell-based, human; conditions: HiBiT K562 cell line, 24 hours, top dose 10 μM; read-out: Effect on protein abundance, HTT (IC50 category)
Method in brief: as §1

[4] = system: K562 (human chronic myelogenous leukemia) cells; assay: Cell Titer Glo 2.0 cell viability assay; type: cell-based; conditions: K562 cells, 72 hours, Cell Titer Glo 2.0, read-out: K562 GI50

Row | Structure (SMILES) | IC50 [1] | IC50 [2] | IC50 [3] | GI50 ([4]; Homo sapiens, K562, 72 h) | GI50 [4]
1 | Cc1cn2nc(-c3ccc4c(c3)CCN(C3CCN(C)CC3)C4=O)cc(C)c2n1 [Compound 268] | < 100 nM | 100 to 1000 nM | 1000 to 10000 nM | 1000 to 10000 nM | 
2 | Cc1cn2nc(-c3ccc4c(=O)n(C5CCNCC5)cnc4c3)nc2c(C)n1 [Compound 287, 7-{6,8-dimethyl-[1,2,4]triazolo[1,5-a]pyrazin-2-yl}-3-(piperidin-4-yl)quinazolin-4-one] | < 100 nM | 100 to 1000 nM | 100 to 1000 nM | 100 to 1000 nM | 
3 | Cc1cn2cc(-c3ccc4c(=O)n([C@@H]5CCN[C@H](C)C5)cnc4c3)cc(F)c2n1 [Compound 295] | < 100 nM | 1000 to 10000 nM | 1000 to 10000 nM | 100 to 1000 nM | 
4 | Cn1cc2cc(-n3cnc4cc(C5=CCNCC5)ccc4c3=O)ccc2n1 [Compound 158] | > 10000 nM | 1000 to 10000 nM | > 10000 nM |  | 
5 | CNc1cc(-c2cc(F)c3nc(C)cn3c2)cc2ncn(C3CCNCC3)c(=O)c12 [Compound 358, 7-{8-fluoro-2-methylimidazo[1,2-a]pyridine-6-yl}-5-(methylamino)-3-(piperidin-4-yl)quinazolin-4-one] | 100 to 1000 nM | 1000 to 10000 nM | 1000 to 10000 nM | 1000 to 10000 nM | 
6 | Cc1nc2c(F)cc(-c3ccc4c(=O)n(C5CCN(C)CC5)cnc4c3)cc2o1 [Compound 300] | < 100 nM | 100 to 1000 nM | 100 to 1000 nM | 1000 to 10000 nM | 
7 | Cc1cn2cc(-c3ccc4c(=O)n(C5CCNCC5)cnc4c3)cc(C)c2n1 [Compound 292] | < 100 nM | 100 to 1000 nM | 100 to 1000 nM | 100 to 1000 nM | 
8 | Cn1cc2cc(-n3cnc4cc(N5CCNCC5)ccc4c3=O)ccc2n1 [Compound 153] | 1000 to 10000 nM | > 10000 nM | > 10000 nM |  | 
9 | Cc1cn2nc(-c3cc(F)c4c(=O)n([C@@H]5CCNC6(CC6)C5)cnc4c3)cc(C)c2n1 [Compound 356] | < 100 nM | < 100 nM | < 100 nM | 100 to 1000 nM | 
10 | Cc1cn2nc(-c3ccc4c(=O)n(C5CCCNCC5)ncc4c3)cc(C)c2n1 (centres unmarked) [Compound 283] | < 100 nM | 100 to 1000 nM | < 100 nM | 100 to 1000 nM | 
11 | Cc1cn2cc(-c3ccc4c(=O)n([C@H]5CCN[C@H](C)C5)cnc4c3)cc(F)c2n1 [Compound 296] | < 100 nM | 100 to 1000 nM | 100 to 1000 nM | 100 to 1000 nM | 
12 | Cc1cn2cc(-c3cc(F)c4c(=O)n([C@H]5CNCC[C@@H]5O)cnc4c3)cc(F)c2n1 [Compound 348, 5-fluoro-7-{8-fluoro-2-methylimidazo[1,2-a]pyridin-6-yl}-3-[(3S,4S)-4-hydroxypiperidin-3-yl]quinazolin-4-one] | > 10000 nM | > 10000 nM | > 10000 nM | > 10000 nM | 
13 | CCN1CCC(n2ncc3cc(-c4cc(C)c5nc(C)cn5n4)ccc3c2=O)CC1 [Compound 266] | < 100 nM | 100 to 1000 nM | < 100 nM | 100 to 1000 nM | 
14 | Cc1cn2cc(-c3ccc4c(=O)n([C@@H]5CCN[C@@H](C)C5)cnc4c3)cc(F)c2n1 [Compound 293] | < 100 nM | 100 to 1000 nM | 100 to 1000 nM | 100 to 1000 nM | 
15 | Cc1cn2nc(-c3cc(F)c4c(=O)n(C5CCNC6(CC6)C5)cnc4c3)cc(C)c2n1 (centres unmarked) [Compound 351] | < 100 nM | < 100 nM | < 100 nM | 100 to 1000 nM | 
16 | Cc1cn2nc(-c3cc(C)c4c(=O)n(C5CCNCC5)cnc4c3)cc(C)c2n1 [Compound 355] | < 100 nM | < 100 nM | < 100 nM | 100 to 1000 nM | 
17 | Cc1cn2cc(-c3cc(F)c4c(=O)n(C5CCNCC5)cnc4c3)cc(C)c2n1 [Compound 317] | < 100 nM | < 100 nM | 100 to 1000 nM | 100 to 1000 nM | 
18 | Cc1cn2cc(-c3cc(F)c4c(=O)n(C5=CCNCC5)cnc4c3)cc(F)c2n1 [Compound 342] | < 100 nM | 100 to 1000 nM | 100 to 1000 nM | < 100 nM | 
19 | Cc1cn2cc(-c3ccc4c(=O)n(C5CCN[C@@H](C)C5)cnc4c3)cc(F)c2n1 (some centres unmarked) [Compound 294] | < 100 nM | 100 to 1000 nM | 100 to 1000 nM | 100 to 1000 nM | 
20 | Cc1cn2cc(-c3cc(F)c4c(=O)n([C@H]5CCNC[C@H]5F)cnc4c3)cc(F)c2n1 [Compound 338] | < 100 nM | 100 to 1000 nM | 1000 to 10000 nM | 100 to 1000 nM | 
21 | Cc1cn2nc(-c3ccc4c(=O)n([C@@H]5CCNC6(CC6)C5)cnc4c3)cc(C)c2n1 [Compound 350, 3-[(7R)-4-azaspiro[2.5]octan-7-yl]-7-{2,8-dimethylimidazo[1,2-b]pyridazin-6-yl}quinazolin-4-one] | < 100 nM | < 100 nM | 100 to 1000 nM |  | 100 to 1000 nM

Row | Structure (SMILES) | IC50 [1] | IC50 [2] | IC50 [3] | GI50 ([4]; Homo sapiens, K562, 72 h) | GI50 [4]
22 | Cc1cn2nc(-c3ccc4c(c3)CCN([C@@H]3CCN[C@H](C)C3)C4=O)cc(C)c2n1 [Compound 281] | 100 to 1000 nM | 100 to 1000 nM | 1000 to 10000 nM | 1000 to 10000 nM | 
23 | Cc1cn2nc(-c3ccc4c(c3)CCN(C3CCN(C)C3)C4=O)cc(C)c2n1 (centres unmarked) [Compound 282] | 1000 to 10000 nM | 1000 to 10000 nM | > 10000 nM | > 10000 nM | 
24 | Cn1cc2cc(-c3cc(F)c4c(=O)n(C5CCNCC5)cnc4c3)cc(C#N)c2n1 [Compound 316] | < 100 nM | < 100 nM | 100 to 1000 nM | 100 to 1000 nM | 
25 | Cc1cn2nc(-c3ccc4c(=O)n(C5CCNC(C)(C)C5)ncc4c3)cc(C)c2n1 (centres unmarked) [Compound 279] | < 100 nM | 100 to 1000 nM | < 100 nM | 1000 to 10000 nM | 
26 | Cc1cn2nc(-c3cc(F)c4c(=O)n(C5CCNCC5)cnc4c3)cc2c(C)n1 [Compound 318] | < 100 nM | < 100 nM | < 100 nM | 100 to 1000 nM | 
27 | Cc1cn2nc(-c3cc(F)c4c(=O)n(C5CCNC6(CC6)C5)ncc4c3)cc(C)c2n1 (centres unmarked) [Compound 312] | < 100 nM | < 100 nM | < 100 nM | 100 to 1000 nM | 
28 | Cc1cn2nc(-c3ccc4c(=O)n([C@@H]5CCN(C)[C@H](C)C5)ncc4c3)cc(C)c2n1 [Compound 277] | < 100 nM | 100 to 1000 nM | 100 to 1000 nM | 1000 to 10000 nM | 
29 | Cc1cc(-c2ccc3c(=O)n(C4CCN(C)CC4)cnc3c2)cc2cn(C)nc12 [Compound 156] | 100 to 1000 nM | 1000 to 10000 nM | 1000 to 10000 nM |  | 
30 | Cc1cn2nc(-c3ccc4c(=O)n(C5CCN(C)CC5)ccc4c3)cc(C)c2n1 [Compound 310] | < 100 nM | 100 to 1000 nM | 100 to 1000 nM | 1000 to 10000 nM | 
31 | Cc1cn2nc(-c3ccc4c(=O)n(C5CCN(C)CC5)cnc4c3F)cc(C)c2n1 [Compound 290] | 100 to 1000 nM | 100 to 1000 nM | 100 to 1000 nM |  | 
32 | Cc1cn2cc(-c3cc(F)c4c(=O)n(C5CCNCC5)cnc4c3)nc2c(C)n1 [Compound 319] | < 100 nM | 100 to 1000 nM | 1000 to 10000 nM | 100 to 1000 nM | 
33 | CN1CC=C(c2ccc3c(=O)n(-c4ccc5nn(C)cc5c4)cnc3c2)CC1 [Compound 159] | > 10000 nM | > 10000 nM | > 10000 nM |  | 
34 | Cc1cc(-c2ccc3c(=O)n(C4CC(C)(C)NC(C)(C)C4)cnc3c2)cc2cn(C)nc12 [Compound 157] | 1000 to 10000 nM | 1000 to 10000 nM | 1000 to 10000 nM |  | 
35 | Cc1cn2cc(-c3ccc4c(=O)n(C5CCNCC5)cnc4c3)cc(Cl)c2n1 [Compound 291] | < 100 nM | 100 to 1000 nM | 100 to 1000 nM | < 100 nM | 
36 | Cc1cn2cc(-c3ccc4c(=O)n(C5CCN(C)CC5)cnc4c3)ncc2n1 [Compound 308] | 100 to 1000 nM | 1000 to 10000 nM | 1000 to 10000 nM | 1000 to 10000 nM | 
37 | Cc1cn2nc(-c3cc(O)c4c(=O)n(C5CCNC5)cnc4c3)cc(C)c2n1 (centres unmarked) [Compound 362, 7-{2,8-dimethylimidazo[1,2-b]pyridazin-6-yl}-5-hydroxy-3-(pyrrolidin-3-yl)quinazolin-4-one] | 100 to 1000 nM | 1000 to 10000 nM | > 10000 nM | 1000 to 10000 nM | 
38 | O=c1c2ccc(-c3cn[nH]c3)cc2ncn1C1CCNCC1 [Compound 284] | 1000 to 10000 nM | 1000 to 10000 nM | > 10000 nM | > 10000 nM | 
39 | Cc1cn2nc(-c3ccc4c(=O)n(C5CCN(C)CC5)cnc4c3)nc2c(C)n1 [Compound 288, 7-{6,8-dimethyl-[1,2,4]triazolo[1,5-a]pyrazin-2-yl}1-3-(1-methylpiperidin-4-yl)quinazolin-4-one] | 1000 to 10000 nM | 1000 to 10000 nM | 1000 to 10000 nM | 1000 to 10000 nM | 
40 | Cc1cn2cc(-c3cc(F)c4c(=O)n(C5CNCCC5=O)cnc4c3)cc(F)c2n1 (centres unmarked) [Compound 352, 5-fluoro-7-{8-fluoro-2-methylimidazo[1,2-a]pyridin-6-yl}-3-(4-oxopiperidin-3-yl)quinazolin-4-one] | > 10000 nM | > 10000 nM | > 10000 nM | > 10000 nM | 
41 | Cc1cn2nc(-c3ccc4c(=O)n([C@@H]5CCN[C@H](C)C5)ncc4c3)cc(C)c2n1 [Compound 272] | < 100 nM | 100 to 1000 nM | < 100 nM | 100 to 1000 nM | 

From patent US20250332173A1, “COMPOUNDS AND METHODS FOR MODULATING NUCLEIC ACID SPLICING” (REMIX THERAPEUTICS INC., priority 2021, published 2025)
